Patent publication US20230079819A1, “COMPOUNDS AND USES THEREOF” (Foghorn Therapeutics Inc., priority 2019, published 2023)
Like-named read-outs stand apart in the source and are kept apart here.

How the values were obtained:
BRM = target: T1, BRM (Homo sapiens, UniProt P51531); assay: ATPase catalytic activity of BRM, ADP-Glo in vitro biochemical assay; conditions: 30 nM BRM, 400 μM ATP
T1 construct: made in house; host or cells: High Five insect cells

BRG-1 = target: T2, BRG-1 (Homo sapiens, UniProt P51532); assay: ATPase catalytic activity of BRG-1, ADP-Glo in vitro biochemical assay; conditions: 30 nM BRG-1, 400 μM ATP
T2 construct: made in house; host or cells: High Five insect cells

[1] = ATPase catalytic activity, read-out: BRM IP50
[2] = ATPase catalytic activity, read-out: BRG1 IP50
[3] = ATPase catalytic activity, read-out: BRM IP50 (μM)*
[4] = ATPase catalytic activity, read-out: BRG1 IP50 (μM)*

T2 sequence (P51532 whole entry): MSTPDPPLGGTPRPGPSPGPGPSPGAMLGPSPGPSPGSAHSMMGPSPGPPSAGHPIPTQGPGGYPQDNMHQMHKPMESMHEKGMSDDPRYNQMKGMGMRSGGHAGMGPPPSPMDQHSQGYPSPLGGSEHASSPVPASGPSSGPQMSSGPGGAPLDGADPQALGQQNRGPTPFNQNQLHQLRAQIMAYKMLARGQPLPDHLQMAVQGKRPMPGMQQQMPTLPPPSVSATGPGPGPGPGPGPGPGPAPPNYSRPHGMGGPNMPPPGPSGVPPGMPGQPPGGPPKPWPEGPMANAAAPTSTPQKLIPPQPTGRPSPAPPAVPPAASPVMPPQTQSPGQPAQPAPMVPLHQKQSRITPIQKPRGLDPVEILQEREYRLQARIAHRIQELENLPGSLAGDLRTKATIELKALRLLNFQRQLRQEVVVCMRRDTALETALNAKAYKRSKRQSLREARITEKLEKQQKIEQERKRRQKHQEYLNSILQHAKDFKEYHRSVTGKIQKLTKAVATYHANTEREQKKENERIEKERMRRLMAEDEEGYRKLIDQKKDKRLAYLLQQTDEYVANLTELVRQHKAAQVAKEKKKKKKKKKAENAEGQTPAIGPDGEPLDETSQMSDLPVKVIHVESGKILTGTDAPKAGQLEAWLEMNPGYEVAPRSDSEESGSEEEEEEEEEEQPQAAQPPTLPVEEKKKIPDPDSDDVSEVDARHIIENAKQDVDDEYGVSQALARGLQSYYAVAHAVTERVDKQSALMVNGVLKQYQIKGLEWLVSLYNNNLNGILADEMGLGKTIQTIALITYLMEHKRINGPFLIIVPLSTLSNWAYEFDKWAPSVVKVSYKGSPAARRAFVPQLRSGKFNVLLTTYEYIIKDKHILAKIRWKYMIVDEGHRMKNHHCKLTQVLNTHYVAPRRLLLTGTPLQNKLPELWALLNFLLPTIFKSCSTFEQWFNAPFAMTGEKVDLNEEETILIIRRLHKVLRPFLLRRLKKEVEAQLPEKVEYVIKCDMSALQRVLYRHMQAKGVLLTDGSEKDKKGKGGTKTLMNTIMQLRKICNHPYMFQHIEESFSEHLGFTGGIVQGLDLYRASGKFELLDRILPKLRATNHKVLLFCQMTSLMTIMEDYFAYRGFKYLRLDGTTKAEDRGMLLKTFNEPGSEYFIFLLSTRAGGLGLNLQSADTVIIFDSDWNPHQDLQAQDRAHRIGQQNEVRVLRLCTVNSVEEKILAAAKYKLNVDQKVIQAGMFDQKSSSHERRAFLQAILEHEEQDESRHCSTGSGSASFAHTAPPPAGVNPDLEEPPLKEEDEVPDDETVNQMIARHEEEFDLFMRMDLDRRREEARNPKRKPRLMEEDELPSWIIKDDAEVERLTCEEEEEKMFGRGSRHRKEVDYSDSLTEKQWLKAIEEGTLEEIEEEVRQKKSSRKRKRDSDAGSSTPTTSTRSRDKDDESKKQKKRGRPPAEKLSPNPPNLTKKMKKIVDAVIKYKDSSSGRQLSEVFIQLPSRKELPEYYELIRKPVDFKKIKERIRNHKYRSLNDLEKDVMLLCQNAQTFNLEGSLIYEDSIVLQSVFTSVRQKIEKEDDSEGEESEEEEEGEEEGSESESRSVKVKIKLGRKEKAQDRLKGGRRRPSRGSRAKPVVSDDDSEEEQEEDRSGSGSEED
T1 sequence (P51531 whole entry): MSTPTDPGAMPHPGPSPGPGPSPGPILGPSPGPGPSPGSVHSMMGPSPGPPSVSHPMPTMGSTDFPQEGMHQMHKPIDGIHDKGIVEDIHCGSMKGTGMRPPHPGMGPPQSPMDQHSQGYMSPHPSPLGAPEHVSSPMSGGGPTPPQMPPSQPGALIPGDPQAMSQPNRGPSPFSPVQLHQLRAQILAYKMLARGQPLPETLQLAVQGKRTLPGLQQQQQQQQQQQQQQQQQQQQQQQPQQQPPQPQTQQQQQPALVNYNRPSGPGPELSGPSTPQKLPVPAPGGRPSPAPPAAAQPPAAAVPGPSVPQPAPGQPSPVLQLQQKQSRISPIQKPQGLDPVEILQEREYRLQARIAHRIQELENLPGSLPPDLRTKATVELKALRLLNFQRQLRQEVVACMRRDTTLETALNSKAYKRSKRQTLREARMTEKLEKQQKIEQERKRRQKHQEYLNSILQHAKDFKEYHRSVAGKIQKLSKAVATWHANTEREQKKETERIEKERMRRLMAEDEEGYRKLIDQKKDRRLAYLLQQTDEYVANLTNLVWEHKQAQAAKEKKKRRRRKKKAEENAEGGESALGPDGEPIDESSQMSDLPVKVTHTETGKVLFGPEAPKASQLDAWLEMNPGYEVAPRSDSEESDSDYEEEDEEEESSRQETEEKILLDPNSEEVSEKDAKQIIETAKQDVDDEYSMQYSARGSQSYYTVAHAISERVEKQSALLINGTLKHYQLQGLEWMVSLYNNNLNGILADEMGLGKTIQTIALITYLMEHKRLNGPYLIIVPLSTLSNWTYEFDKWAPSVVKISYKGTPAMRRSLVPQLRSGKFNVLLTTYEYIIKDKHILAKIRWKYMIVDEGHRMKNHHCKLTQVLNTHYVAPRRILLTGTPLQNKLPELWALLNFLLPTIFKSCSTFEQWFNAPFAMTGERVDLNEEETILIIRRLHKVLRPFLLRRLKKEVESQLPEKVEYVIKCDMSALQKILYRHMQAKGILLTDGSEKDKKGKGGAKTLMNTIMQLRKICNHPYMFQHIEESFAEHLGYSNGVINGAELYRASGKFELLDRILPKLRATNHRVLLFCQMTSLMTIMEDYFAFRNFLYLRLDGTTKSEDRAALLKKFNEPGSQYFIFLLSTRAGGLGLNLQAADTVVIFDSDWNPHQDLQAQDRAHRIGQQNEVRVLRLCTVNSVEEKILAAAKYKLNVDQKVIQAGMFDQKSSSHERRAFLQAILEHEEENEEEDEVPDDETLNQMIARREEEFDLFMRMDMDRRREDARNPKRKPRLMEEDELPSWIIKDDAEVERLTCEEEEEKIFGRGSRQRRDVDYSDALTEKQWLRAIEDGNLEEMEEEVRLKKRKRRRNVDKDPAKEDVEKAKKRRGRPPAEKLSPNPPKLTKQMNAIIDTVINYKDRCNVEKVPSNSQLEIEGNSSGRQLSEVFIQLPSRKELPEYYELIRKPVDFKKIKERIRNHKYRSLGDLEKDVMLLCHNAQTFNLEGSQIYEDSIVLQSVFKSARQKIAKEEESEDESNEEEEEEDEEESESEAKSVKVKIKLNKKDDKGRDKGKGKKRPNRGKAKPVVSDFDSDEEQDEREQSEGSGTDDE

Row | Structure (SMILES) | IC50 (BRM; [1]) | IC50 (BRG-1; [2]) | IC50 (BRM; [3]) | IC50 (BRG-1; [4]) | further results
1 | COC[C@H](NC(=O)c1ccn(C(C)(C)C)c1)C(=O)Nc1nc(-c2cc(F)c3ccn(C)c(=O)c3c2)cs1 [Compound 563] | < 0.01 µM | < 0.01 µM |  |  | 
2 | CS(=O)(=O)n1ccc(C(=O)NCC(=O)Nc2nc(-c3cc(F)c4c(c3)C(F)(F)CC4)cs2)c1 [Compound 719] | < 0.01 µM | < 0.01 µM |  |  | 
3 | C[C@H](NC(=O)c1ccn(C(C)(C)C)n1)C(=O)Nc1nc(-c2ccc3ccn(C)c(=O)c3c2)cs1 [Compound 792] |  |  |  |  | IC50 (BRM; read-out: BRM IP50): > 0.1 µM; IC50 (BRG-1; read-out: BRG1 IP50): > 0.1 µM
4 | Cn1nccc1C(=O)NCC(=O)Nc1nc(-c2cccc(C#N)c2)cs1 [Compound 32, N-(2-((4-(3-cyanophenyl)thiazol-2-yl)amino)-2-oxoethyl)-1-methyl-1H-pyrazole-5-carboxamide] |  |  | > 1 µM | > 1 µM | 
5 | CS(=O)(=O)n1ccc(C(=O)NCC(=O)Nc2nc(-c3cccc(N4CC5(CCCCO5)C4)c3)cs2)c1 [Compound 170] |  |  | > 0.01 µM | > 0.01 µM | 
6 | COC[C@H](NC(=O)c1ccn(S(C)(=O)=O)c1)C(=O)Nc1nc(-c2ccc3c(c2)C(=O)N(C)CC3)cs1 [Compound 351] |  |  | > 0.01 µM | > 0.01 µM | 
7 | COC[C@H](NC(=O)c1ccn(S(C)(=O)=O)c1)C(=O)Nc1nc(-c2cccc([C@@]34CCOC[C@@H]3C4)n2)cs1 [Compound 756] | > 0.01 µM | > 0.1 µM |  |  | 
8 | C[C@@H]1CN(c2cncc(-c3csc(NC(=O)CNC(=O)c4ccn(S(C)(=O)=O)c4)n3)c2)C[C@H](C)O1 [Compound 686] | > 0.01 µM | > 0.01 µM |  |  | 
9 | CS(=O)(=O)n1ccc(C(=O)NCC(=O)Nc2nc(-c3cccc(-c4ccnc(C(F)(F)F)c4)c3)cs2)c1 [Compound 82, 1-(methylsulfonyl)-N-(2-oxo-2-((4-(3-(2-(trifluoromethyl)pyridin-4-yl)phenyl)thiazol-2-yl)amino)ethyl)-1H-pyrrole-3-carboxamide] |  |  | < 0.01 µM | < 0.01 µM | 
10 | CS(=O)(=O)n1ccc(C(=O)NCC(=O)Nc2nc(-c3cccc(COc4ccccn4)c3)cs2)c1 [Compound 107, 1-(methylsulfonyl)-N-(2-oxo-2-((4-(3-((pyridin-2-yloxy)methyl)phenyl)thiazol-2-yl)amino)ethyl)-1H-pyrrole-3-carboxamide] |  |  | > 0.01 µM | > 0.01 µM | 
11 | COC[C@H](NC(=O)c1ccn(S(C)(=O)=O)c1)C(=O)Nc1nc(-c2ccc3c(c2)C(F)(F)CC3)cs1 [Compound 732] | > 0.01 µM | > 0.01 µM |  |  | 
12 | CS(=O)(=O)n1ccc(C(=O)NCC(=O)Nc2nc(-c3cccc(-c4cn(C(F)F)nn4)c3)cs2)c1 [Compound 275] |  |  | > 0.01 µM | > 0.01 µM | 
13 | CNC(=O)C1(c2cc(-c3cccc(-c4csc(NC(=O)CNC(=O)c5ccn(S(C)(=O)=O)c5)n4)c3)ccn2)CC1 [Compound 435] | < 0.01 µM | < 0.01 µM |  |  | 
14 | CN(C)CC[C@H](NC(=O)c1ccn(S(C)(=O)=O)c1)C(=O)Nc1nc(-c2cccc(-c3ccncc3)c2)cs1 [Compound 78, (S)—N-(4-(dimethylamino)-1-oxo-1-((4-(3-(pyridin-4-yl)phenyl)thiazol-2-yl)amino)butan-2-yl)-1-(methylsulfonyl)-1H-pyrrole-3-carboxamide] |  |  | > 0.01 µM | > 0.01 µM | 
15 | COC[C@H](NC(=O)c1ccn(S(C)(=O)=O)c1)C(=O)Nc1nc(-c2ccc(F)c(N3C[C@@H](C)O[C@@H](C)C3)n2)cs1 [Compound 377] |  |  | < 0.01 µM | > 0.01 µM | 
16 | COC(=O)N1CCC[C@H](c2csc(NC(=O)CNC(=O)c3ccn(S(C)(=O)=O)c3)n2)C1 [Compound 579] | > 0.1 µM | > 0.1 µM |  |  | 
17 | CNC(=O)C(C)(C)n1ccc(-c2cccc(-c3csc(NC(=O)CNC(=O)c4ccn(S(C)(=O)=O)c4)n3)c2)n1 [Compound 414, N-[2-[[4-[3-[1-[1,1-dimethyl-2-(methylamino)-2-oxo-ethyl]pyrazol-3-yl]phenyl]thiazol-2-yl]amino]-2-oxo-ethyl]-1-methylsulfonyl-pyrrole-3-carboxamide] | < 0.01 µM | < 0.01 µM |  |  | 
18 | CS(=O)(=O)n1ccc(C(=O)NCC(=O)Nc2nc(-c3cnn(-c4ccncc4)c3)cs2)c1 [Compound 6, 1-(methylsulfonyl)-N-(2-oxo-2-((4-(1-(pyridin-4-yl)-1H-pyrazol-4-yl)thiazol-2-yl)amino)ethyl)-1H-pyrrole-3-carboxamide] |  |  | > 0.1 µM | > 0.1 µM | 
19 | COC[C@H](NC(=O)c1ccn(S(C)(=O)=O)c1)C(=O)Nc1nc(-c2cccc(N3C[C@@H](C)O[C@@H](C)C3)c2F)cs1 [Compound 368] |  |  | > 0.01 µM | > 0.01 µM | 
20 | CN1CCOc2ccc(-c3csc(NC(=O)CNC(=O)c4ccn(S(C)(=O)=O)c4)n3)cc21 [Compound 282] |  |  | < 0.01 µM | < 0.01 µM | 
21 | COC[C@H](NC(=O)c1ccn(S(C)(=O)=O)c1)C(=O)Nc1nc(-c2cccc([C@]34CCOC[C@H]3C4)n2)cs1 [Compound 755] | > 0.01 µM | > 0.01 µM |  |  | 

More lines, main results first:

Row | IC50 (BRM; [1]) | IC50 (BRG-1; [2]) | IC50 (BRM; [3]) | IC50 (BRG-1; [4]) | Structure (SMILES) | further results
22 | > 0.01 µM | > 0.01 µM |  |  | CC(C)(C)n1ccc(C(=O)NCC(=O)Nc2nc(-c3cccc(N4C[C@H]5COC[C@H]5C4)n3)cs2)c1 [Compound 674] | 
23 | > 0.01 µM | > 0.1 µM |  |  | CC(C)(C)n1ccc(C(=O)NCC(=O)Nc2nc(-c3cccc(C4COC4)c3)cs2)c1 [Compound 464] | 
24 |  |  | > 0.01 µM | > 0.1 µM | COC1CC2(C1)CN(c1cccc(-c3csc(NC(=O)CNC(=O)c4ccn(S(C)(=O)=O)c4)n3)c1)C2 [Compound 222] | 
25 |  |  | > 0.1 µM | > 0.1 µM | CO[C@H]1CCCN(c2cccc(-c3csc(NC(=O)CNC(=O)c4ccn(C5(C)COC5)c4)n3)n2)C1 [Compound 313] | 
26 | > 0.01 µM | > 0.01 µM |  |  | C[C@H]1CCN(c2cccc(-c3csc(NC(=O)CNC(=O)c4ccn(C(C)(C)C)c4)n3)n2)C1 [Compound 654] | 
27 | > 0.01 µM | > 0.01 µM |  |  | CC(C)(C)n1ccc(C(=O)NCC(=O)Nc2nc(-c3cccc(N4CCCC5(COC5)C4)n3)cs2)c1 [Compound 653] | 
28 |  |  | > 0.01 µM | > 0.01 µM | Cn1cc(-c2cccc(-c3csc(NC(=O)CNC(=O)c4ccn(C(C)(C)C)c4)n3)c2)cn1 [Compound 83, 1-(tert-butyl)-N-(2-((4-(3-(1-methyl-1H-pyrazol-4-yl)phenyl)thiazol-2-yl)amino)-2-oxoethyl)-1H-pyrrole-3-carboxamide] | 
29 | > 0.01 µM | > 0.01 µM |  |  | CC(C)(C)n1ccc(C(=O)NCC(=O)Nc2nc(-c3cccc(N4CCC(C#N)C4)n3)cs2)c1 (stereo not shown) [Compound 672] | 
30 |  |  | > 0.01 µM | > 0.01 µM | CC(C)(C)n1ccc(C(=O)NCC(=O)Nc2nc(-c3ccnc(N4CCC(O)CC4)n3)cs2)c1 [Compound 322] | 
31 | < 0.01 µM | < 0.01 µM |  |  | COC[C@H](NC(=O)c1ccn(S(C)(=O)=O)c1)C(=O)Nc1nc(-c2cccc(N3CC[C@H]4OCC[C@@H]4C3)n2)cs1 [Compound 774] | 
32 |  |  | > 0.01 µM | > 0.01 µM | CC1(C)CN(c2cccc(-c3csc(NC(=O)CNC(=O)c4ccn(S(C)(=O)=O)c4)n3)c2)CC[C@@H]1O [Compound 165] | 
33 | > 0.1 µM | > 0.1 µM |  |  | CC(C)(C)n1ccc(C(=O)NCC(=O)Nc2nc(-c3cccc(N4CCN(S(C)(=O)=O)CC4)n3)cs2)c1 [Compound 665] | 
34 |  |  | > 0.01 µM | > 0.01 µM | CN1CCN(c2cc(-c3cccc(-c4csc(NC(=O)CNC(=O)c5ccn(S(C)(=O)=O)c5)n4)c3)ccn2)CC1 [Compound 19, N-(2-((4-(3-(2-(4-methylpiperazin-1-yl)pyridin-4-yl)phenyl)thiazol-2-yl)amino)-2-oxoethyl)-1-(methylsulfonyl)-1H-pyrrole-3-carboxamide] | 
35 |  |  | > 0.01 µM | > 0.01 µM | CC(C)(C)n1ccc(C(=O)NCC(=O)Nc2nc(-c3ccc4c(c3)OCC4)cs2)c1 [Compound 308] | 
36 |  |  | > 0.01 µM | > 0.01 µM | CO[C@H]1CCCN(c2cccc(-c3csc(NC(=O)CNC(=O)c4ccn(S(C)(=O)=O)c4)n3)c2)C1 [Compound 11, (S)—N-(2-((4-(3-(3-methoxypiperidin-1-yl)phenyl)thiazol-2-yl)amino)-2-oxoethyl)-1-(methylsulfonyl)-1H-pyrrole-3-carboxamide] | 
37 |  |  | > 0.01 µM | > 0.01 µM | CS(=O)(=O)n1ccc(C(=O)NCC(=O)Nc2nc(-c3cccc(N4CCC(C#N)CC4)c3)cs2)c1 [Compound 216] | 
38 |  |  | > 0.01 µM | > 0.01 µM | CO[C@@H]1CCCN(c2cccc(-c3csc(NC(=O)CNC(=O)c4ccn(C(C)(C)C)c4)n3)n2)C1 [Compound 312] | 
39 |  |  | < 0.01 µM | < 0.01 µM | CS(=O)(=O)n1ccc(C(=O)NCC(=O)Nc2nc(-c3cccc(N4CCC(O)CC4)c3)cs2)c1 [Compound 94, N-(2-((4-(3-(4-hydroxypiperidin-1-yl)phenyl)thiazol-2-yl)amino)-2-oxoethyl)-1-(methylsulfonyl)-1H-pyrrole-3-carboxamide] | 
40 | > 0.01 µM | > 0.1 µM |  |  | CS(=O)(=O)n1ccc(C(=O)NCC(=O)Nc2nc(-c3cccc(N4CC5CCC(C4)O5)c3)cs2)c1 [Compound 445] | 
41 | > 0.1 µM | > 0.1 µM |  |  | CC(C)(F)COc1cccc(-c2csc(NC(=O)CNC(=O)c3ccn(C4(C#N)CC4)c3)n2)n1 [Compound 498] | 
42 | > 0.1 µM | > 0.1 µM |  |  | CN1CCn2nc(-c3cccc(-c4csc(NC(=O)CNC(=O)c5ccn(C(C)(C)C)c5)n4)c3)cc2C1=O [Compound 437] | 
43 |  |  | > 0.01 µM | > 0.01 µM | C[C@@H]1CCCN(c2cccc(-c3csc(NC(=O)CNC(=O)c4ccn(S(C)(=O)=O)c4)n3)n2)C1 [Compound 336] | 
44 | > 0.01 µM | > 0.01 µM |  |  | CS(=O)(=O)n1ccc(C(=O)NCC(=O)Nc2nc(-c3cccc(N4CC[C@@H](C(F)F)C4)c3)cs2)c1 [Compound 586] | 
